From paper PMC7279487, “Dual Target Ligands with 4-tert-Butylphenoxy Scaffold as Histamine H3 Receptor Antagonists and Monoamine Oxidase B Inhibitors” (International Journal of Molecular Sciences, 2020)

Key:
hH3R = conditions: read-out: H3R Ki; cited from earlier work
AChE = tested on: AChE; parameters: method as in PMID 28861918; conditions: cited from earlier work
BuChE = tested on: BuChE; parameters: method as in PMID 28861918; conditions: cited from earlier work
[1] = toxicity in HEK-293 cells (EZ4U); format: cell-based, human; conditions: human, HEK-293 cells; reference doxorubicin at 0.2 and 0.05 µM; 48 h incubation; read-out: HEK-293 cell viability
Procedure: The used reference cytostatic drug doxorubicin (DX) decreased cell viability <50% under the same conditions at very low concentrations of 0.2 and 0.05 µM. […] Oxidative damage was induced by very high toxic levels of hydrogen peroxide (H2O2; 300 µM), the popular cell model for PD research, in neuroblastoma SH-SY5Y cell line. […] Salsolinol (SAL) was used at a concentration of 50 µM as the reference compound with the proven neuroprotection activity.
The HEK-293 cells were seeded at a concentration of 1.5 × 10^4 cells/well in 200 μL culture medium and incubated for 24 h at 37 °C and 5% CO2. […] Then, 25 μL EZ4U labelling mixture (Biomedica, Vienna, Austria) was added and the cells were incubated for 2 h. The spectrophotometric absorbance of the samples was measured using a microplate reader (EnSpire, PerkinElmer, Waltham, MA, USA) at 492 nm. All measurements were performed in triplicate, and results are shown as mean ± SD.

Row | Compound | Ki (hH3R) [nM] | IC50 (AChE) [nM] | IC50 (BuChE) [nM] | viability at 48 h [1] [%]
1 | C#CCN(C)Cc1cc2cc(OCCCN3CCCCC3)ccc2n1C [Contilisant] | 11 | 530 | 1690 | –
2 | COc1cccc2c1C(=O)c1c(O)c3c(c(O)c1C2=O)C[C@@](O)(C(=O)CO)C[C@@H]3O[C@H]1C[C@H](N)[C@H](O)[C@H](C)O1 [doxorubicin (DX), doxorubicin, reference compound] | – | – | – | < 50
